The values below come from publication PMC12299813, “Combined Metabolomics and Network Pharmacology to Reveal Anti-Diabetic Mechanisms and Potential Pharmacological Components of Synsepalum dulcificum” (Plants, 2025).

One assay deals with α-glucosidase. As to the kind of experiment: α-glucosidase inhibition assay (PNPG method). Format: biochemical, yeast. Conditions: acarbose positive control, three repetitions, read-out: IC50 ± SD of α-glucosidase inhibition, S. dulcificum components. From the text:
Ultrapure water was obtained using the UP series ultrapure water system (Chengdu, China). […] HPLC-grade formic acid was purchased from Shanghai Aladdin Biochemical Technology Co., Ltd. (Shanghai, China). HPLC-grade methanol and acetonitrile were purchased from Merck (Darmstadt, Germany). Di-methyl sulfoxide (DMSO) was purchased from Tianjin Dama Chemical Reagent Factory (Tianjin, China). Disodium hydrogen phosphate was purchased from Guangdong Guanghua Technology Co., Ltd. (Shantou, China). Other analytical-grade chemicals and reagents, such as sodium chloride and anhydrous ethanol, were obtained from Sichuan Xilong Scientific Co., Ltd. (Chengdu, China).
Soak the crushed stems, leaves, and fruits of S. dulcificum in methanol for 24 h, then extract the chemical components using ethyl acetate. After that, concentrate the extract using a rotary vacuum evaporator, repeating the extraction three times to obtain the crude extracts, which are then prepared at concentrations of 0.5, 1, 8, and 16 mg/mL, respectively, for subsequent inhibition experiments.
The assay was conducted following a previously described method, and made some minor adjustments. Briefly, 0.1 M phosphate-buffered saline (PBS, pH 6.9) was used to prepare standard sample solutions of different concentrations, α-glucosidase (1 U/mL), and p-nitrophenyl-α-D-glucopyranoside (α-PNPG, 5 mM). A mixture of the sample (50 μL) and α-glucosidase (50 μL) was incubated at 37 °C for 10 min, followed by the addition of 50 μL of PNPG and further incubation at 37 °C for 20 min. Finally, 100 μL of Na2CO3 (0.1 M) was added to terminate the reaction after incubating at 37 °C for 10 min. […] The experiment was set up with three repetitions, and the IC50 values were determined.
As usually defined, the IC50 is the concentration needed to halve the response being measured. `C=C(C)[C@@H]1CC[C@]2(C(=O)O)CC[C@]3(C)[C@H](CC[C@@H]4[C@@]5(C)CC[C@H](O)C(C)(C)[C@@H]5CC[C@]43C)[C@@H]12` [Betulinic acid]: the IC50 stood at 0.07 ± 0.02 mM.
On the same count and under the same terms, with `C[C@H]1[C@H](C)CC[C@]2(C(=O)O)CC[C@]3(C)C(=CC[C@@H]4[C@@]5(C)C[C@@H](O)[C@H](O)C(C)(C)[C@@H]5CC[C@]43C)[C@H]12` [Corosolic acid] the figure was 2.12 ± 0.44 mM; with `COC(=O)c1cc(O)c(O)c(O)c1` [Methyl gallate], 4.18 ± 1.09 mM.
In the case of `CC(C)=CCC/C(C)=C/CC/C(C)=C/CC/C=C(\C)CC/C=C(\C)CCC=C(C)C` [Squalene], the IC50 was determined as 55.1 ± 1.8 mM.
For `CC[C@H](/C=C/[C@@H](C)[C@H]1CC[C@H]2[C@@H]3CC=C4C[C@@H](O)CC[C@]4(C)[C@H]3CC[C@]12C)C(C)C` [Stigmasterol], the IC50 was 2.11 ± 0.24 mM.
For the molecule `COc1cc(/C=C/CO)cc(OC)c1O[C@@H]1O[C@H](CO)[C@@H](O)[C@H](O)[C@H]1O` [Syringin], the IC50 was determined as 5.4 ± 1.2 mM.

The test system of another assay is type 2 diabetic albino rats.
Assay: not given
Particulars: cited from earlier work. Further details: method as in PMID 28917550.
On to `COc1ccc(Cl)cc1C(=O)NCCc1ccc(S(=O)(=O)NC(=O)NC2CCCCC2)cc1` [glibenclamide], for which the blood glucose levels entry is given as “significantly lowered”.

Tested on in another assay: not given
Assay: not given
Particulars: isolated from the stem of SD; cited from earlier work. Details: method as in doi:10.1016/j.jtice.2010.05.008.
Consider `COc1cc([C@H]2OC[C@H]3[C@@H]2CO[C@H]3c2cc(OC)c(O)c(OC)c2)cc(OC)c1O` [(+)-epi-syringaresinol], for which the “DPPH radical scavenging activity compared to positive control vitamin C” value is “superior”.
With `COc1cc([C@H]2OC[C@H]3[C@@H]2CO[C@@H]3c2cc(OC)c(O)c(OC)c2)cc(OC)c1O` [(+)-syringaresinol], the “DPPH radical scavenging activity compared to positive control vitamin C” value is on record as “superior”.
